We go through 46 molecules from PubChem BioAssay AID1508612.

This data set can be described thus: passive permeability, PAMPA, ADME assay (AID 1508612). The note with it: pH 7.4, 30.0 min, 50.0 µM.

As a reminder, the Papp is a coefficient for how fast a substance crosses the barrier. A high value points to ready permeation.

On to `CCN(CC)CCCC(C)Nc1cc(/C=C/c2ccccc2Cl)nc2cc(Cl)ccc12` (stereo unspecified), for which the apparent permeability (Papp) is 833 ×10⁻⁶ cm/s.
As for `O=c1cc(-c2nc(Nc3ccc(F)c(F)c3)c3ccccc3n2)cc[nH]1`, the apparent permeability (Papp) turned out to be 396 ×10⁻⁶ cm/s. Against the preceding molecule, the Papp is about 2.1-fold lower.
With `COC(=O)CNC(=O)c1nc(-c2ccccc2OC)c2ccccn12` the figure was > 1000 ×10⁻⁶ cm/s.
Next, `CCN(CC)C(=O)N1c2ccccc2C=Cc2ccccc21`: > 1000 ×10⁻⁶ cm/s.
With `Cc1ccc(-c2ccnc(N3CCC(C(N)=O)CC3)n2)cc1` the figure was 577 ×10⁻⁶ cm/s; with `Cc1ccc(S(=O)(=O)Nc2cnccc2C(=O)Nc2nc(-c3ccc(Cl)cc3)cs2)cc1`, 38.2 ×10⁻⁶ cm/s; with `CN1CCN(c2cc(-c3nc(Nc4ccc(F)c(F)c4)c4ccccc4n3)ccn2)CC1`, > 1000 ×10⁻⁶ cm/s.
In turn, `O=C(Nc1nc(-c2ccccc2)cs1)c1ccncc1NS(=O)(=O)c1ccc(Cl)cc1` showed a Papp of 294 ×10⁻⁶ cm/s.
Next, `O=C(O)CNC(=O)c1c(O)c2ccccc2n(Cc2ccccc2)c1=O`: 14.6 ×10⁻⁶ cm/s.
With `CCOc1ccc(CCNC(=O)c2cc3sccc3n2CCN2CCOCC2)cc1OCC` the figure was > 1000 ×10⁻⁶ cm/s; with `CN(C)c1ccc(-c2csc(N3CCC(C(N)=O)CC3)n2)cc1`, 3.06 ×10⁻⁶ cm/s.
With `CC(C)CN(CC(=O)N(CCCN1CCCC1=O)CC(N)=O)C(=O)CNCCc1ccccc1F` the figure was 11.6 ×10⁻⁶ cm/s; with `O=C(Nc1nc(-c2ccccc2)cs1)c1ccncc1NS(=O)(=O)c1ccc(C(F)(F)F)cc1`, 316 ×10⁻⁶ cm/s.
`CSc1ccc(/C=C/c2nc3ccccc3n2S(=O)(=O)c2cccc(Cl)c2)cc1`: the apparent permeability (Papp) came out at 911 ×10⁻⁶ cm/s.
With `NC(=O)C1CCN(c2nc(-c3ccc(F)cc3)cs2)CC1` the figure was 198 ×10⁻⁶ cm/s.
With `O=C(CCCCn1c(=O)[nH]c2ccsc2c1=O)N1CCN(c2cccc(Cl)c2)CC1` the figure was 855 ×10⁻⁶ cm/s.
With `COc1ccc(O)c(CNc2ccc(S(=O)(=O)Nc3nccs3)cc2)c1` the figure was 3.74 ×10⁻⁶ cm/s; with `NC(=O)C1CCN(c2ncnc(-c3ccc4c(c3)OCCCO4)n2)CC1`, 254 ×10⁻⁶ cm/s; with `Cc1nc(NCc2ccco2)nc2c1C(=O)CC(C)C2` (stereo unspecified), > 1000 ×10⁻⁶ cm/s.
`CC1CCc2ccc(F)cc2N1S(=O)(=O)c1cccs1` (stereo unspecified) displayed an apparent permeability (Papp) of 795 ×10⁻⁶ cm/s.
Next, `Cc1ccccc1C(=O)N1CCc2cc(-c3nc(NC(=O)Cc4ccc5ccccc5c4)sc3C)ccc21`: < 1 ×10⁻⁶ cm/s; `NC(=O)C1CCN(c2ncc(-c3ccc4c(c3)OC(F)(F)O4)s2)CC1`: 438 ×10⁻⁶ cm/s.
Next, `Cc1ccc(-c2cc(C(=O)Nc3ccc(-c4nn[nH]n4)cc3)c3ccccc3n2)cc1C`: 4.23 ×10⁻⁶ cm/s.
With `CC(=O)c1ccc(N2CCN(S(=O)(=O)c3cc4c(cc3Cl)NC(=O)C4)CC2)cc1` the figure was 558 ×10⁻⁶ cm/s; with `O=C(NCCc1nc2ccccc2n1CCO)C1CCCCC1`, 85.4 ×10⁻⁶ cm/s.
Consider `Cc1ccc(S(=O)(=O)Nc2ccc(C)cc2C(=O)Nc2nc(-c3ccccc3)cs2)cc1`, for which the Papp is < 1 ×10⁻⁶ cm/s.
In the case of `O=C(Cc1ccc(Cl)c(Cl)c1)Nc1ccc([S+](=O)([O-])Nc2ccccn2)cc1`, the apparent permeability (Papp) amounted to 651 ×10⁻⁶ cm/s.
`CN1C(=O)C(=O)N2C(=C[C@]3(c4c[nH]c5ccccc45)c4ccccc4N[C@H]23)C1=O` returned an apparent permeability coefficient (Papp) of 209 ×10⁻⁶ cm/s.
Next, `Cc1ccc(O)c(-c2cc(-c3ccccc3C)[nH]n2)c1`: 511 ×10⁻⁶ cm/s.
Next, `COc1ccc(-c2ccc3ncc(Nc4ccc(C(N)=O)cc4)n3n2)cc1OC`: 149 ×10⁻⁶ cm/s; `Cc1ccc(CNc2ccccc2C(=O)Nc2nc(-c3ccccc3)cs2)cc1`: 26.4 ×10⁻⁶ cm/s.
With `Cc1cnc(N2CCC(C(N)=O)CC2)nc1-c1cccc(N(C)C)c1` the figure was 666 ×10⁻⁶ cm/s; with `COCCn1ccc2c(C3=CCOCC3)nc(-c3cccc(NC(C)=O)c3)cc21`, 464 ×10⁻⁶ cm/s; with `CC(=O)N1CCN(c2ccc(OCc3nn(C)c(C)c3-c3cccc4c(CCCOc5cccc6ccccc56)c(C(=O)O)n(Cc5cccnc5)c34)cc2)CC1`, 253 ×10⁻⁶ cm/s.
Molecule `CCC(Sc1nc2ccccc2c2nc(CCc3c(C)n[nH]c3C)nn12)C(=O)Nc1ccc(F)cc1` (stereo unspecified) yielded a Papp of 37.9 ×10⁻⁶ cm/s.
With `Cc1nc(-c2ccccc2)cc([C@H]2CN3CC[C@H]2C[C@@H]3CNC2CCOCC2)n1` the figure was 369 ×10⁻⁶ cm/s.
Next, `CCOc1ccc(N2C(=O)c3n[nH]c(-c4cccs4)c3C2c2cccc(F)c2)cc1` (stereo unspecified): 82.4 ×10⁻⁶ cm/s; `COc1cc2nc(N3CCCC3)nc(NCCCCCN3CCCC3)c2cc1OC`: 2.4 ×10⁻⁶ cm/s; `NC(=O)C1CCN(c2nc(-c3ccc4c(c3)OCCO4)cs2)CC1`: 669 ×10⁻⁶ cm/s.
Next, `O=C(Nc1ccc(N2CCC(N3CCCCC3)CC2)c(C(=O)O)c1)c1ccc(Br)cc1`: < 1 ×10⁻⁶ cm/s; `Cc1cc(S(=O)(=O)Nc2cnccc2C(=O)Nc2nc(-c3ccccc3)cs2)c(C)o1`: 768 ×10⁻⁶ cm/s; `COC(=O)[C@]12CCC(C)(C)C[C@@H]1[C@@H]1C(=O)C=C3[C@@]4(C)C=C(C#N)C(=O)C(C)(C)[C@@H]4CC[C@@]3(C)[C@]1(C)CC2`: 16.2 ×10⁻⁶ cm/s.
`O=C(Nc1ccccc1)C1CCN(c2ncc(-c3ccc4c(c3)OCCCO4)s2)CC1` came in with a Papp of 917 ×10⁻⁶ cm/s. This Papp lies about 57-fold higher than the previous one.
In turn, `O=C(Nc1nc2cc(C(F)(F)F)cc(NC3CC3)n2n1)c1cccnc1` came in with a Papp of 197 ×10⁻⁶ cm/s.
Next, `COc1ccc(NC(C)=O)cc1S(=O)(=O)Nc1ccc(Br)cc1`: 627 ×10⁻⁶ cm/s; `O=C(c1ccc(-c2ncc3cnc(-c4ccccc4)cn23)cc1)N1CCS(=O)(=O)CC1`: 45.6 ×10⁻⁶ cm/s.
